Results taken from patent US7361730B1, “Surface localized colligin/Hsp47 in carcinoma cells” (University of Maryland, priority 1999, dated 2008).
Each block holds one molecule with its values, some of them ahead of it.

Columns and labels:
[1] = test system: colligin/Hsp47; assay: Cell surface labeling, cross-linking and immunoprecipitation; assay type: cell-based, human and murine; conditions: 1 mM amiloride; SCC and LL/2 cells
Method: The methods used were previously described for the characterization of TM4SF complexes with integrins (Berditchevski et al., (1996) Molec. Biol. of the Cell 7, 193-207). In essence, cells are labeled with NHS-LC-biotin (Pierce, Rockford, Ill.) according to kit protocol, and lysed in immunoprecipitation buffer [1% Brij 96, 25 mM Hepes, pH 7.4, 150 mM NaCl, 5 mM MgCl2, 2 mM PMSF, 20 μg/ml apotinin, and 10 μg/ml leupeptin]. Immune complexes are collected on protein A beads pre-bound with antibodies, followed by four washes with immunoprecipitation buffer. For more “stringent” conditions, the immunoprecipitation buffer is supplemented with 0.2% SDS. Immune complexes are eluted from protein A beads with Laemmli elution buffer and proteins are separated by SDS-PAGE. Proteins are transferred to nitrocellulose membranes and visualized with HRPO-conjugated ExtrAvidin (Sigma Chemical Co., St. Louis Mo.) using Renaissance Chemiluminescent Reagents (NEN, Cambridge). Reprecipitations are preformed from Brij 96 lysates prepared from surface-biotinylated SCC cells. […]
(§1) For cross-linking, cells are treated with DTSSP, a membrane impermeable cross-linker or DSP. After solubilization in immunoprecipitation buffer supplemented with 0.2% SDS protein complexes are immunoprecipitated as above and analyzed under reducing conditions.

[2] = test system: SCC cells and LL/2 cells; assay: Tumor cell invasion assay (modified Boyden chamber, Matrigel); assay type: cell-based, human and murine; conditions: SCC and LL/2 cells in Matrigel chambers, 24 hrs
Method: An in vitro assay is modified after that described previously by Chu et al. (1993) Proc. Natl. Acad. Sci. 90, 4261-4265, utilizing Matrigel®, a reconstituted basement membrane. In essence, a modified Boyden chamber containing an 8 μm-porosity polyvinylpyrolidone-free polycarbonate filter is precoated with Matrigel® (Collaborative Biomedical Products, Becton Dickinson, Bedford, Mass.). The lower well of the chamber is then filled with serum free medium containing 500 μl of 3T6 cell-conditioned medium as a chemoattractant. The upper well is then seeded with 200 μl of cell suspension at 1.0×10^4 cells/chamber plus additives as indicated. The chambers are then incubated at 37° C. for 24 hrs. […] The resulting cells contained in Matrigel®, as well as the cells in the lower chamber, are counted in a Coulter counter. Data are expressed as the percent invasion through the matrix and membrane relative to the migration through the control membrane. The “Invasion Index” is expressed as the ratio of the percent invasion of a test cell over the percent invasion of a control cell.
Overall treatment and group effects are assessed using an analysis of variance (ANOVA), with post-hoc comparisons based on the Newman-Keuls test (p<0.05). The association of mean HSP47 fluorescence labeling with the invasion index is evaluated using the nonparametric Spearman's rank-order correlation coefficient (rho).

[3] = target: T1, colligin/Hsp47 on the surface of murine Lewis Lung Carcinoma (LL/2) cells (murine, UniProt P19324 18-417); assay: cross-linking (DSP) and immunoprecipitation with anti-CD81 mAbs, LL/2 cells
T1 construct: whole, on cells; Endogenous protein of LL/2 cells
T1 sequence (looked up): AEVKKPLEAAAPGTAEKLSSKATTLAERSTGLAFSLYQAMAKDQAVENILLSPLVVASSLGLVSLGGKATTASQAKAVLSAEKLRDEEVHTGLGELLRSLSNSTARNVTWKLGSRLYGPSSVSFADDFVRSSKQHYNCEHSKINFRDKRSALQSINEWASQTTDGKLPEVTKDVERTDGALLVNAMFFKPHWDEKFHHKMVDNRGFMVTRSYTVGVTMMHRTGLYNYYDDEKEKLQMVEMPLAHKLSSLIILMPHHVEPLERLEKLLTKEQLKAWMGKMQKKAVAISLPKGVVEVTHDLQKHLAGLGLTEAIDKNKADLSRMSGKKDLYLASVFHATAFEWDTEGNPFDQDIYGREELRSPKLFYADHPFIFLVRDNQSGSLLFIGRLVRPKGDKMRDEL
Method: (§2) Reprecipitations are preformed from Brij 96 lysates prepared from surface-biotinylated SCC cells. After five washes with the immunoprecipitation buffer, the protein complexes are dissociated with 0.5% SDS added to the immunoprecipitation buffer. The eluates are subsequently diluted 1:1 with immunoprecipitation buffer and re-precipitated with the appropriate antibodies directly coupled to Sepharose beads. The samples are then processed as described above.
as §1
(§3) Membrane surface proteins are consistently co-precipitated with anti-colligin/Hsp47 antibodies. In cross-linking studies, SCC and LL/2 cells are first pre-treated with a cleavable cross-linker, DSP, then surface labeled with biotin or [^125]-I, and subsequent immunoprecipitation is carried out under stringent conditions to disrupt the noncovalent association between Hsp and tetraspanin protein. […] A characteristic 47K band is readily detected in all anti-CD9 immunoprecipitates and protein band of 22K, similar in size to CD9/or CD81, is co-precipitated with anti-colligin/Hsp47. […]

[4] = target: T2, colligin/CBP2/Hsp47 on the surface of human carcinoma cells (human, UniProt P50454 19-418); assay: cross-linking (DSP) and immunoprecipitation with anti-CD81 mAbs, SCC cells
T2 construct: whole, on cells; Endogenous protein on intact cells or in plasma membrane preparations or Brij 96 lysates of surface-biotinylated cells; The 46K band is called unglycosylated Hsp47; also called colligin/Hsp47; cell surface colligin/Hsp47
T2 sequence (looked up): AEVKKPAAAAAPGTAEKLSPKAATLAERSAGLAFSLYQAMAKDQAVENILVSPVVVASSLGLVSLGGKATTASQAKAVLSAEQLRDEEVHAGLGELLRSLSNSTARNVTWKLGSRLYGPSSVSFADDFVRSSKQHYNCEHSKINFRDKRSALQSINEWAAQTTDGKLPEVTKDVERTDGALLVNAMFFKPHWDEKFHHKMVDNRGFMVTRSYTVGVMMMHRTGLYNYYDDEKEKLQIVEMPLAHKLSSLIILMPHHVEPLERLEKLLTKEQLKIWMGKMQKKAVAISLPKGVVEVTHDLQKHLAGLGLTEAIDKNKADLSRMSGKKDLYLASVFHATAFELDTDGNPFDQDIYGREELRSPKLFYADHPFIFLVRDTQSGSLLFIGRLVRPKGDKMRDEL
Method: as §2, §1, §3

Molecule: N=C(N)NC(=O)c1nc(Cl)c(N)nc1N [amiloride]
amount of colligin/Hsp47 recovered following immunoprecipitation [1]: greatly enhances
invasion index [2]: dramatically decreases the invasion index

binding result [3]: no binding
B1: CD81 on murine LL/2 cells (other, UniProt P35762 1-236, looked up)
chain: MGVEGCTKCIKYLLFVFNFVFWLAGGVILGVALWLRHDPQTTSLLYLELGNKPAPNTFYVGIYILIAVGAVMMFVGFLGCYGAIQESQCLLGTFFTCLVILFACEVAAGIWGFVNKDQIAKDVKQFYDQALQQAVMDDDANNAKAVVKTFHETLNCCGSNALTTLTTTILRNSLCPSGGNILTPLLQQDCHQKIDELFSGKLYLIGIAAIVVAVIMIFEMILSMVLCCGIRNSSVY
notes: whole, on cells

binding result [4]: no binding
B2: CD81 on human SCC cells (other, UniProt P60033 1-236, looked up)
chain: MGVEGCTKCIKYLLFVFNFVFWLAGGVILGVALWLRHDPQTTNLLYLELGDKPAPNTFYVGIYILIAVGAVMMFVGFLGCYGAIQESQCLLGTFFTCLVILFACEVAAGIWGFVNKDQIAKDVKQFYDQALQQAVVDDDANNAKAVVKTFHETLDCCGSSTLTALTTSVLKNNLCPSGSNIISNLFKEDCHQKIDDLFSGKLYLIGIAAIVVAVIMIFEMILSMVLCCGIRNSSVY
notes: whole, on cells
